Like-named read-outs stand apart in the source and are kept apart here. Bounds are passed on as bounds.

The target of one experiment is T1, MST1 (Homo sapiens, UniProt Q13043).
T1 sequence (Q13043 1-487): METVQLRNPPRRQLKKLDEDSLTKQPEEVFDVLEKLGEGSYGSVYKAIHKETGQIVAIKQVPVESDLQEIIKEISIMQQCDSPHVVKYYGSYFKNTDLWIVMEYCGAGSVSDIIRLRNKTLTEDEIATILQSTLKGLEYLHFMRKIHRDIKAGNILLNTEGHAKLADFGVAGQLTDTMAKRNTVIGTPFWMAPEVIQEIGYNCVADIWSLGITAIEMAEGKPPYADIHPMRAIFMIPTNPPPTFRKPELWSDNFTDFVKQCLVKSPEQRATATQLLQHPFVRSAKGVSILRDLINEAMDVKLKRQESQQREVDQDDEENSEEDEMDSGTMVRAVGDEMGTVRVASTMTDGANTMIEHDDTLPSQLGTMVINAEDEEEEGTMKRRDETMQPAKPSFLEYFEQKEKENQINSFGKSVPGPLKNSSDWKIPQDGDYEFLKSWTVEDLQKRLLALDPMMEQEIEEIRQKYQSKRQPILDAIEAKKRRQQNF
Kind of experiment: In vitro measurement of MST1 inhibition (Z′-Lyte kinase assay). The experiment is classed as biochemical.

A further experiment concerns mouse EAE model. The experiment in a line: Mouse EAE disease model. The experiment is classed as in vivo. The conditions noted are these: mice, subcutaneous dosing, 3 mg/kg, 10 mg/kg BID 12 days from Day 9 after MOG immunization; FIG. 9A. The method, then: Here, an adaptation of the method of Bettelli, et al., J. Immunol. 161:3299 (1998) was implemented. Eight to 12 weeks old C57Bl/6-Albino/129SvEv littermates were immunized subcutaneously with a total of 300 μg MOGp35-55 peptide ([…]) emulsified in complete Freund's adjuvant (CFA) containing 250 μg heat-inactivated Mycobacterium tuberculosis H37 Ra (Difco Laboratories). The antigen was divided equally across two injection sites in the abdominal flanks. Immediately following the injection of the emulsified antigen (day 0), each mouse received one intravenous injection of 500 ng of Pertussis toxin (List Biological Laboratories). Animal weights were recorded prior to the start of the experiment and monitored throughout the experiment, 2-3 times per week. Disease severity was scored on a scale as follows: 0=asymptomatic, no detectable sign of disease; 1=slight weakness of the tail/floppy tail and/or slumped hindquarters; 2=definite total paralysis of the tail; 3=mild waddle/distorted gait and total paralysis of the tail and/or mild impaired righting reflex; 4=heavy waddle with impaired control-weakness of hind limbs and/or impaired righting reflex; 5=paralysis of one of the hind limbs possibly with mild forelimb weakness; 6=paralysis of both hind limbs and/or moderate to severe forelimb weakness; 7=quadriplegia/paralysis of all limbs—hind and fore; 8=moribund/dead. […]

The test system of the next experiment is mouse CIA disease model. The experiment in a line: Mouse CIA disease model. The conditions noted are these: mice, 10, 30, 100 mg/kg PO bid 21 days from Day 20 after immunization; FIG. 4. The experiment is classed as in vivo. As for the experimental part:
Eight to 16 weeks old DBA/1 mice were immunized intradermally (i.d.) at several sites into the base of the tail with 100 μg of chicken type II collagen (CII; Sigma Chemical Co.) in Freund's complete adjuvant (CFA; Difco, Detroit, Mich.) containing 2.5 mg/ml M. tuberculosis, followed by a repeat booster i.d. injection of CII (100 μg emulsified in CFA) given 3 weeks after the primary immunization. Mice were monitored daily for signs of arthritis, and disease severity scores were assessed by a visual scoring of 0 to 4 according to the following scale: 0=no erythema and swelling; 1=erythema and mild swelling of the mid-foot or ankle joint; 2=erythema and mild swelling extending from the ankle to the mid-foot; 3=erythema and moderate swelling extending from the ankle to the metatarsal joints; 4=erythema and severe swelling of the ankle, foot, and digits. Total disease severity scores were recorded as a sum of visual scores for four limbs. In addition to visual scoring, paw thickness was measured with a micrometer caliper.

Experiment [1] relates to Con-A induced hepatitis model. The experiment in a line: Con-A induced hepatitis model. The experiment is classed as in vivo, mouse. The note with it: mice, 10, 30, 100 mg/kg dosed 16 h and 1 h before and 8 h after Con-A challenge; FIG. 6. As for the experimental part: This model was generally conducted as follows. C57Bl/6-Albino/129SvEv mice were injected intravenously (i/v) via the lateral tail vein with a single sublethal dose of Concanavalin A from Canavalia ensiformis (Jack bean, Type IV-S, lyophilized powder, aseptically processed; Sigma) administered at 10-16 mg/kg mouse body weight in a total volume of 0.1-0.3 ml of pyrogen-free PBS. The tail vein injections of mice restrained in a Plexiglas mouse restrainer were performed without anesthesia, using a 1 ml syringe with a 27 gauge needle. At six and 24 hr post-injection, blood samples were collected by retro-orbital bleeding. The animals were sacrificed and sera from the blood samples were analyzed for the presence of IL-12, TNF-α, MCP-1, IFN-γ, IL-10, and IL-6 using a mouse inflammation cytometric bead array (CBA) kit (BD Biosciences, Mountain View, Calif.), according to the manufacturer's instructions. Data were acquired with a FACSCalibur flow cytometer and analyzed with BD CBA Software (BD Biosciences). Biochemical markers of liver failure were assessed by measuring serum liver damage enzymes, aspartate aminotransferase (AST) and alanine aminotransferase (ALT), using a standard clinical biochemical analyzer. Livers of ConA-treated mice were sectioned and stained with H&E to evaluate the degree of T cell-mediated immune inflammation.

The next experiment has as its system rat EAE model. The experiment in a line: Rat EAE disease model. The experiment is classed as in vivo. The conditions noted are these: rats, 10, 25 or 50 mg/kg PO BID from Day 9 after immunization; FIG. 3.
Another experiment relates to rat CIA disease model. The experiment in a line: Rat CIA disease model. The experiment is classed as in vivo. The conditions noted are these: rats, 10 and 25 mg/kg PO BID, 50 mg/kg QD from Day 11 after immunization; FIG. 5. The method, then:
CIA was elicited in rats according to Rosloniec, E. F., et al., Curr Protoc Immunol Chapter 15: Unit 15, pp. 11-25. Here, Lewis rats (150-200 g, female; Charles River Laboratories, Wilmington, Mass.) were injected intradermally at the base of the tail with a total of 300 μl of a 1:1 emulsion of bovine type II collagen (CII; 150 μg total; Sigma-Aldrich) and incomplete Freund's adjuvant (IFA; 150 μl total; Sigma-Aldrich), followed by a repeat booster injection of the same emulsion 7 days after the primary immunization. Rats were monitored for signs of arthritis by clinical scoring (visual observation) of each rat paw, using the rating scale described above. The extent of swelling was calculated by subtracting the baseline values of the first measurement from the values of subsequent measurements.

Setting [2] is: 1 μM ATP, read-out: IC50 (μM) 1 μM ATP.
Setting [3] is: 50 μM ATP, read-out: IC50 (μM) 50 μM ATP.

For `CN(C1CC1)S(=O)(=O)c1ccc(-c2cnc(N)c(-c3ccc4c(c3)CCNC4=O)n2)cc1` [4-(5-amino-6-(1-oxo-1,2,3,4-tetrahydroisoquinolin-6-yl)pyrazin-2-yl)-N-cyclopropyl-N-methylbenzenesulfonamide], the IC50 at MST1 (setting [2]) and on MST1 (setting [3]) was below 0.01 µM each time. The clinical score entry with mouse EAE model is “clear dose-dependency in clinical score”.
Turning to `CN(C1CC1)S(=O)(=O)c1ccc(-c2cnc(N)c(-c3ccc4c(c3)CCNC4=O)c2)cc1` [4-(6-amino-5-(1-oxo-1,2,3,4-tetrahydroisoquinolin-6-yl)pyridin-3-yl)-N-cyclopropyl-N-methylbenzenesulfonamide], the “cumulative arthritis score and change in ankle thickness” value in the experiment on mouse CIA disease model is recorded as “clear benefit versus control”; in the experiment on rat CIA disease model, “therapeutic effect”. Further, the half-inhibitory concentration (IC50) at MST1 (setting [2]) and on MST1 (setting [3]) was below 0.01 µM in each case. For the same compound, in experiment [1], the “TNF-α, IL-6, MCP-1, IFN-γ, ALT and AST” value is given as “clear effect”. For the same compound, in the experiment on rat EAE model, the “severity of clinical score” value is listed as “dose-dependent reduction in severity of clinical score”.

The record behind these values is US8440652B2, “MST1 kinase inhibitors and methods of their use” (Lexicon Pharmaceuticals, Inc., priority 2011, dated 2013).
